Results published in the supplement of paper PMC10307832.

Key:
Experiment in all cases: relative viability (nuclei count vs DMSO), 5 days (fraction); higher = more cells survive
Shikonin + Olaparib = compound: CC(C)=CC[C@@H](O)C1=CC(=O)c2c(O)ccc(O)c2C1=O [Shikonin] + O=C(c1cc(Cc2n[nH]c(=O)c3ccccc23)ccc1F)N1CCN(C(=O)C2CC2)CC1 [Olaparib] (partner 8 µM)
Outline: (§1)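 A single step with final 0.05% Triton X-100, 1% formaldehyde and 1 ug/ml Hoechst fixed the cells and stained nuclei 5 days after treatment. Lung cancer cell lines in 1536-well plates had been treated by pin tool the day after seeding with one drug alone or a fixed anchor-drug dose plus five library-drug doses (not always all listed) in √10 steps, and nuclei were counted on 4× images. Relative viability is the ratio of nuclei in treated wells to nuclei in vehicle wells, taken as the median of duplicate plates.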

[1] = compound: CC(C)N(CCCNC(=O)Nc1ccc(C(C)(C)C)cc1)C[C@H]1O[C@@H](n2ccc3c(N)ncnc32)[C@H](O)[C@@H]1O + Nc1ncn([C@H]2C[C@H](O)[C@@H](CO)O2)c(=O)n1 [Decitabine] (partner 2 µM)
Outline: as §1

Shikonin + Lapatinib = compound: CC(C)=CC[C@@H](O)C1=CC(=O)c2c(O)ccc(O)c2C1=O [Shikonin] + CS(=O)(=O)CCNCc1ccc(-c2ccc3ncnc(Nc4ccc(OCc5cccc(F)c5)c(Cl)c4)c3c2)o1 [Lapatinib] (partner 2 µM)
Outline: as §1

[2] = compound: CC(C)N(CCCNC(=O)Nc1ccc(C(C)(C)C)cc1)C[C@H]1O[C@@H](n2ccc3c(N)ncnc32)[C@H](O)[C@@H]1O + Cc1cc(Nc2cc(N3CCN(C)CC3)nc(Sc3ccc(NC(=O)C4CC4)cc3)n2)n[nH]1 [Tozasertib] (partner 0.1 µM)
Outline: as §1

**Q.** With SW 1573 as the cell line, how does the relative viability (Shikonin + Olaparib; first compound 0.01 µM) read?
**A.** 0.661

**Q.** What about the relative viability (Shikonin + Olaparib; first compound 0.1 µM) of the same cell line?
**A.** 0.557

**Q.** And the relative viability (Shikonin + Olaparib; first compound 0.3162 µM)?
**A.** 0.321

**Q.** What about the relative viability (Shikonin + Olaparib; first compound 1 µM) of the same cell line?
**A.** 0.0736

**Q.** And the relative viability ([1]; first compound 0.08 µM)?
**A.** 0.464

**Q.** And the relative viability ([1]; first compound 0.8 µM)?
**A.** 0.636

**Q.** And the relative viability ([1]; first compound 2.53 µM)?
**A.** 0.512

**Q.** And the relative viability ([1]; first compound 8 µM)?
**A.** 0.543

**Q.** What about the relative viability (Shikonin + Lapatinib; first compound 0.01 µM) of the same cell line?
**A.** 1.07

**Q.** What about the relative viability (Shikonin + Lapatinib; first compound 0.1 µM) of the same cell line?
**A.** 1.18

**Q.** What about the relative viability (Shikonin + Lapatinib; first compound 0.3162 µM) of the same cell line?
**A.** 1.14

**Q.** What about the relative viability (Shikonin + Lapatinib; first compound 1 µM) of the same cell line?
**A.** 1.19

**Q.** And the relative viability ([2]; first compound 0.08 µM)?
**A.** 0.201

**Q.** What about the relative viability ([2]; first compound 0.253 µM) of the same cell line?
**A.** 0.151

**Q.** And the relative viability ([2]; first compound 0.8 µM)?
**A.** 0.201

**Q.** And the relative viability ([2]; first compound 2.53 µM)?
**A.** 0.193

**Q.** What about the relative viability ([2]; first compound 8 µM) of the same cell line?
**A.** 0.163
